# Test results: ChEMBL document CHEMBL5608180, “DNA G-quadruplexes in the genome of Trypanosoma cruzi as potential therapeutic targets for Chagas disease: Dithienylethene ligands as effective antiparasitic agents” (Eur J Med Chem, 2024)
# Calls of active or inactive are those of the source. The calls are words filed in the database; no cut-off is given here.
# What was measured:
# Trypanosoma cruzi [1] = experiment: Antiparasitic activity against epimastigote form of Trypanosoma cruzi Y(TcII) assessed as inhibition of parasite growth incubated for 96 hrs followed by incubation with resazurin for 4 to 6 hrs by resazurin dye based fluorescence analysis; assay type: functional, organism-based
# Trypanosoma cruzi [2] = experiment: Antiparasitic activity against epimastigote form of Trypanosoma cruzi SOL(TcV) assessed as inhibition of parasite growth incubated for 96 hrs followed by incubation in dark with resazurin for 4 to 6 hrs by resazurin dye based fluorescence analysis; assay type: functional, organism-based
# Trypanosoma cruzi [3] = experiment: Antiparasitic activity against epimastigote form of Trypanosoma cruzi BM Lopez (TcIa) assessed as inhibition of parasite growth incubated for 96 hrs followed by incubation with resazurin for 4 to 6 hrs by resazurin dye based fluorescence analysis; assay type: functional, organism-based
# Trypanosoma cruzi [4] = experiment: Antiparasitic activity against epimastigote form of Trypanosoma cruzi DA (TcI) assessed as inhibition of parasite growth incubated for 96 hrs followed by incubation with resazurin for 4 to 6 hrs by resazurin dye based fluorescence analysis; assay type: functional, organism-based
# [5] = Cytotoxicity against human MRC5 cells; assay type: toxicity, cell-based
# [6] = Selectivity index, ratio of IC50 for cytotoxicity against human MRC5 cells to IC50 for antiparasitic activity against epimastigote form of Trypanosoma cruzi Y (TcII); assay type: toxicity, cell-based; settings: read-out: Ratio IC50
# [7] = Selectivity index, ratio of IC50 for cytotoxicity against human MRC5 cells to IC50 for antiparasitic activity against epimastigote form of Trypanosoma cruzi SOL (TcV); assay type: toxicity, cell-based; settings: read-out: Ratio IC50
# [8] = Selectivity index, ratio of IC50 for cytotoxicity against human MRC5 cells to IC50 for antiparasitic activity against epimastigote form of Trypanosoma cruzi BM Lopez (TcIa); assay type: toxicity, cell-based; settings: read-out: Ratio IC50
# [9] = Selectivity index, ratio of IC50 for cytotoxicity against human MRC5 cells to IC50 for antiparasitic activity against epimastigote form of Trypanosoma cruzi DA (TcI); assay type: toxicity, cell-based; settings: read-out: Ratio IC50
# Trypanosoma cruzi [10] = experiment: Antiparasitic activity against trypomastigote form of Trypanosoma cruzi SOL (MHOM/ES/2008/SOL; DTU V) assessed as inhibition of parasite growth incubated for 96 hrs followed by incubation in dark with resazurin for 4 to 6 hrs by resazurin dye based fluorescence analysis; assay type: functional, organism-based
# [11] = Selectivity index, ratio of IC50 for cytotoxicity against human MRC5 cells to IC50 for antiparasitic activity against trypomastigote form of Trypanosoma cruzi SOL (TcV); assay type: toxicity, cell-based; settings: read-out: Ratio IC50
# Quadruplex DNA [12] = experiment: Stabilization of Trypanosoma cruzi G-quadruplex RCr DNA (FAM-5'-GGGGACGGGAATGGGGGTGCATGAGGGG-3'-TAMRA) assessed as change in apparent melting temperature at 5 uM by FRET melting analysis; assay type: nucleic-acid assay
# Quadruplex DNA [13] = experiment: Stabilization of Trypanosoma cruzi G-quadruplex MCr DNA (FAM-5'-GTGGAGGGGGAGGGTCATGGGG-3'-TAMRA) assessed as change in apparent melting temperature at 5 uM by FRET melting analysis; assay type: nucleic-acid assay
# Quadruplex DNA [14] = experiment: Stabilization of Trypanosoma cruzi G-quadruplex TCr DNA (FAM-5'-GGGAGGGACGGATGGGCAGAAACGGG-3'-TAMRA) assessed as change in apparent melting temperature at 5 uM by FRET melting analysis; assay type: nucleic-acid assay
# Quadruplex DNA [15] = experiment: Stabilization of human telomere G-quadruplex F21T DNA (FAM-5'-GGGTTAGGGTTAGGGTTAGGG-3'-TAMRA) assessed as change in apparent melting temperature at 5 uM by FRET melting analysis; assay type: nucleic-acid assay
# Quadruplex DNA [16] = experiment: Stabilization of human proto-oncogene G-quadruplex MYC DNA (FAM-5'-TTGAGGGTGGGTAGGGTGGGTAA-3'-TAMRA) assessed as change in apparent melting temperature at 5 uM by FRET melting analysis; assay type: nucleic-acid assay
# dsDNA [17] = experiment: Binding affinity to human duplex FdxT DNA (FAM-5'-TATAGCTAT-peg-TATAGCTATA-3'-TAMRA) at 5 uM by FRET melting analysis; assay type: nucleic-acid assay
# Quadruplex DNA [18] = experiment: Stabilization of Trypanosoma cruzi G-quadruplex RCr DNA (FAM-5'-GGGGACGGGAATGGGGGTGCATGAGGGG-3'-TAMRA) at 10 uM by FRET melting analysis; assay type: nucleic-acid assay
# Quadruplex DNA [19] = experiment: Stabilization of human telomere G-quadruplex F21T DNA (FAM-5'-GGGTTAGGGTTAGGGTTAGGG-3'-TAMRA) at 5 uM in presence of 1 to 10 uM double stranded ds26 DNA by FRET melting analysis; assay type: nucleic-acid assay
# Quadruplex DNA [20] = experiment: Stabilization of Trypanosoma cruzi G-quadruplex RCr DNA (FAM-5'-GGGGACGGGAATGGGGGTGCATGAGGGG-3'-TAMRA) at 5 uM in presence of 1 to 10 uM double stranded ds26 DNA by FRET melting analysis; assay type: nucleic-acid assay
# Quadruplex DNA [21] = experiment: Binding affinity to Trypanosoma cruzi G-quadruplex RCr DNA (FAM-5'-GGGGACGGGAATGGGGGTGCATGAGGGG-3'-TAMRA) assessed as broadening of imino proton signals with delta shift at 1 equiv. by 1H-NMR analysis; assay type: nucleic-acid assay
# Quadruplex DNA [22] = experiment: Binding affinity to Trypanosoma cruzi G-quadruplex MCr DNA (FAM-5'-GTGGAGGGGGAGGGTCATGGGG-3'-TAMRA) assessed as broadening of imino proton signals at 1 equiv. by 1H-NMR analysis; assay type: nucleic-acid assay
# Quadruplex DNA [23] = experiment: Binding affinity to Trypanosoma cruzi G-quadruplex TCr DNA (FAM-5'-GGGAGGGACGGATGGGCAGAAACGGG-3'-TAMRA) assessed as broadening of imino proton signals at 1 equiv. by 1H-NMR analysis; assay type: nucleic-acid assay
# Quadruplex DNA [24] = experiment: Binding affinity to Trypanosoma cruzi G-quadruplex RCr DNA (FAM-5'-GGGGACGGGAATGGGGGTGCATGAGGGG-3'-TAMRA) assessed as increase in melting temperature at DNA:compound concentration ratio of 1:2 by CD melting assay; assay type: nucleic-acid assay
# Quadruplex DNA [25] = experiment: Binding affinity to Trypanosoma cruzi G-quadruplex MCr DNA (FAM-5'-GTGGAGGGGGAGGGTCATGGGG-3'-TAMRA) at DNA:compound concentration ratio of 1:1 to 1:2 by CD melting assay; assay type: nucleic-acid assay
# Quadruplex DNA [26] = experiment: Binding affinity to Trypanosoma cruzi G-quadruplex RCr DNA (FAM-5'-GGGGACGGGAATGGGGGTGCATGAGGGG-3'-TAMRA) assessed as decrease in absorption with shift to higher wavelength at 25 uM by UV-Vis spectrophotometric analysis; assay type: nucleic-acid assay
# Quadruplex DNA [27] = experiment: Binding affinity to Trypanosoma cruzi G-quadruplex MCr DNA (FAM-5'-GTGGAGGGGGAGGGTCATGGGG-3'-TAMRA) assessed as decrease in absorption with shift to higher wavelength at 25 uM by UV-Vis spectrophotometric analysis; assay type: nucleic-acid assay
# dsDNA [28] = experiment: Binding affinity to double stranded ds26 DNA (unknown origin) assessed as decrease in absorbance with shift to lower wavelength at 25 uM by UV-Vis spectrophotometric analysis; assay type: nucleic-acid assay
# [29] = Drug uptake in epimastigote form of Trypanosoma cruzi BM Lopez at 20 uM measured after 2 hrs by fluorescence microscopy; assay type: ADME
# [30] = Drug uptake in epimastigote form of Trypanosoma cruzi BM Lopez assessed as localization in kinetoplast and nucleus at 20 uM measured after 4 hrs by fluorescence microscopy; assay type: ADME
# [31] = Drug uptake in epimastigote form of Trypanosoma cruzi BM Lopez assessed as localization in kinetoplast and nucleus at 20 uM measured after 24 hrs by fluorescence microscopy; assay type: ADME
# Trypanosoma cruzi [32] = experiment: Potency index, ratio of Benznidazole IC50 to test compound IC50 for antiparasitic activity against trypomastigote form of Trypanosoma cruzi SOL (MHOM/ES/2008/SOL; DTU V) by resazurin dye based fluorescence analysis; assay type: functional
structure (smiles),measurement,setting,value
Cc1sc(-c2cccc3cc[n+](C)cc23)cc1C1=C(c2cc(-c3cccc4cc[n+](C)cc34)sc2C)CCC1.[I-].[I-],IC50,Trypanosoma cruzi [1],19.5 µM
same,IC50,Trypanosoma cruzi [2],20.8 µM
same,IC50,Trypanosoma cruzi [3],30.1 µM
same,IC50,Trypanosoma cruzi [4],21.2 µM
same,IC50,[5],61.4 µM
same,selectivity ratio,[6],3.1
same,selectivity ratio,[7],2.9
same,selectivity ratio,[8],2
same,selectivity ratio,[9],2.9
same,IC50,Trypanosoma cruzi [10],1.5 µM
same,selectivity ratio,[11],40.9
same,ΔTm,Quadruplex DNA [12],17 °C
same,ΔTm,Quadruplex DNA [13],14 °C
same,ΔTm,Quadruplex DNA [14],17 °C
same,ΔTm,Quadruplex DNA [15],17 °C
same,ΔTm,Quadruplex DNA [16],17 °C
same,Activity,dsDNA [17],inactive
same,Activity,Quadruplex DNA [18],Active
same,Activity,Quadruplex DNA [19],Active
same,Activity,Quadruplex DNA [20],Active
same,Activity,Quadruplex DNA [21],Active
same,Activity,Quadruplex DNA [22],Active
same,Activity,Quadruplex DNA [23],Active
same,ΔTm,Quadruplex DNA [24],6.98 °C
same,Activity,Quadruplex DNA [25],Active
same,Activity,Quadruplex DNA [26],Active
same,Activity,Quadruplex DNA [27],Active
same,Activity,dsDNA [28],inactive
same,Drug uptake,[29],Active
same,Drug uptake,[30],Active
same,Drug uptake,[31],Active
same,Ratio IC50,Trypanosoma cruzi [32],38
